Source: patent US8501770B2 (ArQule, Inc., priority 2009, dated 2013)

These compounds were tested against Full-length inactive AKT1 (Homo sapiens, UniProt P31749) (assay: Inactive Akt Alpha Screen Assay). Conditions: values not marked with "*"; read-out: Akt1 IC50, (AlphaScreen).
Format: biochemical
How it was run: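 AlphaScreen read-out (excitation 640 nm, emission 570 nm) after 90 min incubation at room temperature in the dark. Signal comes from crosstide phosphorylation by AKT1, which was activated by added PDK1, MAPKAPK2, ATP and lipid vesicles, captured via phospho-AKT substrate antibody and streptavidin beads.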

Sequence of Full-length inactive AKT1 (P31749 whole entry): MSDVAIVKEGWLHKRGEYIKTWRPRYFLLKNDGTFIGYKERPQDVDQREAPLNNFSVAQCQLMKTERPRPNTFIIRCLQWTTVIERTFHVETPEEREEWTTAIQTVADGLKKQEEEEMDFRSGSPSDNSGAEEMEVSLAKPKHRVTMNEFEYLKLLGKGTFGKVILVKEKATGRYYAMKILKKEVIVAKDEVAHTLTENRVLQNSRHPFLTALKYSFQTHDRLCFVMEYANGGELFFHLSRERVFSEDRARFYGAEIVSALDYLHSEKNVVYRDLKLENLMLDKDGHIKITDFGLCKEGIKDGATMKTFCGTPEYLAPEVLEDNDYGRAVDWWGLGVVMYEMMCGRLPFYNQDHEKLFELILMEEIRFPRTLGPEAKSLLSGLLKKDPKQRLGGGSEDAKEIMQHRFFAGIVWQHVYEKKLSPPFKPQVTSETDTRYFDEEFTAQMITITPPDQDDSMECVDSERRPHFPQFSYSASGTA

SMILES	IC50 [nM]
Nc1ncccc1-c1nc2ccc(-c3ccccc3)nc2n1-c1ccc(NC(=O)c2ccccc2)cc1 [Example 254, N-(4-(2-(2-aminopyridin-3-yl)-5-phenyl-3H-imidazo[4,5-b]pyridin-3-yl)phenyl)benzamide]	82
Nc1ncccc1-c1nc2ccc(-c3cccnc3)nc2n1-c1ccc(NC(=O)c2ccccc2)cc1 [Example 255, N-(4-(2-(2-aminopyridin-3-yl)-5-(pyridin-3-yl)-3H-imidazo[4,5-b]pyridin-3-yl)phenyl)benzamide]	12
Nc1ncccc1-c1nc2ccc(-c3ccncc3)nc2n1-c1ccc(NC(=O)c2ccccc2)cc1 [Example 256, N-(4-(2-(2-aminopyridin-3-yl)-5-(pyridin-4-yl)-3H-imidazo[4,5-b]pyridin-3-yl)phenyl)benzamide]	19
Cc1cnc2c(c1)nc(-c1cccnc1N)n2-c1ccc(CNC(=O)c2cccc(F)c2F)cc1 [Example 265, N-(4-(2-(2-aminopyridin-3-yl)-6-methyl-3H-imidazo[4,5-b]pyridin-3-yl)benzyl)-2,3-difluorobenzamide]	93
Cc1cnc2c(c1)nc(-c1cccnc1N)n2-c1ccc(CNC(=O)c2cccnc2)cc1 [Example 268, N-(4-(2-(2-aminopyridin-3-yl)-6-methyl-3H-imidazo[4,5-b]pyridin-3-yl)benzyl)nicotinamide]	590
Cc1cnc2c(c1)nc(-c1cccnc1N)n2-c1ccc(CNC(=O)c2cncnc2)cc1 [Example 271, N-(4-(2-(2-aminopyridin-3-yl)-6-methyl-3H-imidazo[4,5-b]pyridin-3-yl)benzyl)pyrimidine-5-carboxamide]	640
Cc1cnc2c(c1)nc(-c1cccnc1N)n2-c1ccc(CNC(=O)C2CCCC2)cc1 [Example 273, N-(4-(2-(2-aminopyridin-3-yl)-6-methyl-3H-imidazo[4,5-b]pyridin-3-yl)benzyl)cyclopentanecarboxamide]	220
Cc1cnc2c(c1)nc(-c1cccnc1N)n2-c1ccc(CNC(=O)c2cccnc2F)cc1 [Example 274, N-(4-(2-(2-aminopyridin-3-yl)-6-methyl-3H-imidazo[4,5-b]pyridin-3-yl)benzyl)-2-fluoronicotinamide]	51000
Cc1cnc2c(c1)nc(-c1cccnc1N)n2-c1ccc(CNC(=O)c2ccc(Cl)cc2Cl)cc1 [Example 275, N-(4-(2-(2-aminopyridin-3-yl)-6-methyl-3H-imidazo[4,5-b]pyridin-3-yl)benzyl)-2,4-dichlorobenzamide]	110
Cc1cnc2c(c1)nc(-c1cccnc1N)n2-c1ccc(CNC(=O)c2cncs2)cc1 [Example 276, N-(4-(2-(2-aminopyridin-3-yl)-6-methyl-3H-imidazo[4,5-b]pyridin-3-yl)benzyl)thiazole-5-carboxamide]	780
Cc1cc(C)cc(C(=O)NCc2ccc(-n3c(-c4cccnc4N)nc4cc(C)cnc43)cc2)c1 [Example 277, N-(4-(2-(2-aminopyridin-3-yl)-6-methyl-3H-imidazo[4,5-b]pyridin-3-yl)benzyl)-3,5-dimethylbenzamide]	390
Cc1cnc2c(c1)nc(-c1cccnc1N)n2-c1ccc(CNC(=O)c2ccc(C)s2)cc1 [Example 280, N-(4-(2-(2-aminopyridin-3-yl)-6-methyl-3H-imidazo[4,5-b]pyridin-3-yl)benzyl)-5-methylthiophene-2-carboxamide]	110
Cc1cnc2c(c1)nc(-c1cccnc1N)n2-c1ccc(CNC(=O)c2ccccc2C(F)(F)F)cc1 [Example 281, N-(4-(2-(2-aminopyridin-3-yl)-6-methyl-3H-imidazo[4,5-b]pyridin-3-yl)benzyl)-2-(trifluoromethyl)benzamide]	71
Cc1cnc2c(c1)nc(-c1cccnc1N)n2-c1ccc(CNC(=O)c2cc(F)ccc2F)cc1 [Example 283, N-(4-(2-(2-aminopyridin-3-yl)-6-methyl-3H-imidazo[4,5-b]pyridin-3-yl)benzyl)-2,5-difluorobenzamide]	220
Cc1cnc2c(c1)nc(-c1cccnc1N)n2-c1ccc(CNC(=O)c2ccccn2)cc1 [Example 284, N-(4-(2-(2-aminopyridin-3-yl)-6-methyl-3H-imidazo[4,5-b]pyridin-3-yl)benzyl)picolinamide]	770
Cc1cnc2c(c1)nc(-c1cccnc1N)n2-c1ccc(CNC(=O)c2cnccn2)cc1 [Example 285, N-(4-(2-(2-aminopyridin-3-yl)-6-methyl-3H-imidazo[4,5-b]pyridin-3-yl)benzyl)pyrazine-2-carboxamide]	850
Cc1cnc2c(c1)nc(-c1cccnc1N)n2-c1ccc(CNC(=O)Cc2nnn[nH]2)cc1 [Example 286, N-(4-(2-(2-aminopyridin-3-yl)-6-methyl-3H-imidazo[4,5-b]pyridin-3-yl)benzyl)-2-(1H-tetrazol-5-yl)acetamide]	740

Now from value to compound:

IC50 [nM]	SMILES
46	Nc1ncccc1-c1nc2ccc(-c3cccnc3)nc2n1-c1ccc(CC(=O)Nc2ccccc2)cc1 [Example 257, 2-(4-(2-(2-aminopyridin-3-yl)-5-(pyridin-3-yl)-3H-imidazo[4,5-b]pyridin-3-yl)phenyl)-N-phenylacetamide]
17	CC(=O)Nc1cccc(NC(=O)Cc2ccc(-n3c(-c4cccnc4N)nc4ccc(-c5cccnc5)nc43)cc2)c1 [Example 258, N-(3-acetamidophenyl)-2-(4-(2-(2-aminopyridin-3-yl)-5-(pyridin-3-yl)-3H-imidazo[4,5-b]pyridin-3-yl)phenyl)acetamide]
530	CC(=O)Nc1ccc(-c2ccc3nc(-c4cccnc4N)n(-c4ccc(CNC(=O)OC(C)(C)C)cc4)c3n2)cc1 [Example 259, tert-butyl 4-(5-(4-acetamidophenyl)-2-(2-aminopyridin-3-yl)-3H-imidazo[4,5-b]pyridin-3-yl)benzylcarbamate]
14	Cc1ccc2cc(NC(=O)Cc3ccc(-n4c(-c5cccnc5N)nc5ccc(-c6cccnc6)nc54)cc3)ccc2n1 [Example 260, 2-(4-(2-(2-aminopyridin-3-yl)-5-(pyridin-3-yl)-3H-imidazo[4,5-b]pyridin-3-yl)phenyl)-N-(2-methylquinolin-6-yl)acetamide]
150	Cc1ccc2nc(-c3cccnc3N)n(-c3ccc(CNC(=O)c4cccn4C)cc3)c2n1 [Example 262, N-(4-(2-(2-aminopyridin-3-yl)-5-methyl-3H-imidazo[4,5-b]pyridin-3-yl)benzyl)-1-methyl-1H-pyrrole-2-carboxamide]
110	Cc1ccc2cc(C(=O)NCc3ccc(-n4c(-c5cccnc5N)nc5ccc(C)nc54)cc3)ccc2n1 [Example 263, N-(4-(2-(2-aminopyridin-3-yl)-5-methyl-3H-imidazo[4,5-b]pyridin-3-yl)benzyl)-2-methylquinoline-6-carboxamide]
230	Cc1cnc2c(c1)nc(-c1cccnc1N)n2-c1ccc(CNC(=O)c2ccc(Cl)c(Cl)c2)cc1 [Example 266, N-(4-(2-(2-aminopyridin-3-yl)-6-methyl-3H-imidazo[4,5-b]pyridin-3-yl)benzyl)-3,4-dichlorobenzamide]
590	Cc1cnc2c(c1)nc(-c1cccnc1N)n2-c1ccc(CNC(=O)c2cccc(C(F)(F)F)c2)cc1 [Example 267, N-(4-(2-(2-aminopyridin-3-yl)-6-methyl-3H-imidazo[4,5-b]pyridin-3-yl)benzyl)-3-(trifluoromethyl)benzamide]
160	Cc1cnc2c(c1)nc(-c1cccnc1N)n2-c1ccc(CNC(=O)c2ccc(C)c(C)c2)cc1 [Example 269, N-(4-(2-(2-aminopyridin-3-yl)-6-methyl-3H-imidazo[4,5-b]pyridin-3-yl)benzyl)-3,4-dimethylbenzamide]
240	COC(=O)c1cccc(C(=O)NCc2ccc(-n3c(-c4cccnc4N)nc4cc(C)cnc43)cc2)c1 [Example 270, methyl 3-((4-(2-(2-aminopyridin-3-yl)-6-methyl-3H-imidazo[4,5-b]pyridin-3-yl)benzyl)carbamoyl)benzoate]
210	Cc1cnc2c(c1)nc(-c1cccnc1N)n2-c1ccc(CNC(=O)c2ccc(Cl)c(C)c2)cc1 [Example 272, N-(4-(2-(2-aminopyridin-3-yl)-6-methyl-3H-imidazo[4,5-b]pyridin-3-yl)benzyl)-4-chloro-3-methylbenzamide]
120	Cc1cnc2c(c1)nc(-c1cccnc1N)n2-c1ccc(CNC(=O)c2ccc(C)c(F)c2)cc1 [Example 278, N-(4-(2-(2-aminopyridin-3-yl)-6-methyl-3H-imidazo[4,5-b]pyridin-3-yl)benzyl)-3-fluoro-4-methylbenzamide]
110	Cc1cnc2c(c1)nc(-c1cccnc1N)n2-c1ccc(CNC(=O)c2ccc3ncccc3c2)cc1 [Example 279, N-(4-(2-(2-aminopyridin-3-yl)-6-methyl-3H-imidazo[4,5-b]pyridin-3-yl)benzyl)quinoline-6-carboxamide]
140	Cc1cnc2c(c1)nc(-c1cccnc1N)n2-c1ccc(CNC(=O)c2cccc(Cl)c2)cc1 [Example 282, N-(4-(2-(2-aminopyridin-3-yl)-6-methyl-3H-imidazo[4,5-b]pyridin-3-yl)benzyl)-3-chlorobenzamide]
450	CC(C)(C)OC(=O)NCc1ccc(-n2c(-c3cccnc3N)nc3ccc(-c4ccc(CO)cc4)nc32)cc1 [Example 288, tert-butyl 4-(2-(2-aminopyridin-3-yl)-5-(4-(hydroxymethyl)phenyl)-3H-imidazo[4,5-b]pyridin-3-yl)benzylcarbamate]
56	CC(=O)Nc1ccc(-c2ccc3nc(-c4cccnc4N)n(-c4ccc(CNC(=O)c5cccc(F)c5)cc4)c3n2)cc1 [Example 291, N-(4-(5-(4-acetamidophenyl)-2-(2-amino-pyridin-3-yl)-3H-imidazo[4,5-b]pyridin-3-yl)benzyl)-3-fluorobenzamide]
9.5	CC(=O)Nc1cccc(-c2ccc3nc(-c4cccnc4N)n(-c4ccc(CNC(=O)c5ccc(C)c(F)c5)cc4)c3n2)c1 [Example 293, N-(4-(5-(3-acetamidophenyl)-2-(2-aminopyridin-3-yl)-3H-imidazo[4,5-b]pyridin-3-yl)benzyl)-3-fluoro-4-methylbenzamide]
